Data published in patent publication US5157032A, “Mixed ligand complexes and uses thereof as binding agents and probes to DNA” (The Trustees of Columbia University In The City of New York, priority 1990, dated 1992).
Entries after “also recorded” stand apart in the source; their conditions may differ. Read-outs that look alike come from different tables or passages of the source.

Assays:
calf thymus DNA [1] = assay: Equilibrium dialysis of racemic complexes against calf thymus DNA (Scatchard, dialysate CD); format: binding; parameters: Km × 10) equilibrium dialysis (intrinsic binding constant Kb): scale not given here; conditions: for aggregation in solution / binding affinity for DNA / binding curve type (cooperativity) / Enantioselectivity: in words; for binding affinity for DNA: comparative; for Site size: fit to McGhee and von Hippel equation; for Enantioselectivity: dialysate circular dichroism; for Km × 10) equilibrium dialysis (intrinsic binding constant Kb): 5 mM Tris, 50 mM NaCl, pH 7.5, standard deviation in parentheses
Description: Equilibrium Dialysis: Equlibrium dialysis of the reacemic metal complexes was perforemd against calf-thymus DNA using procedures described previously. (74) The buffer used was 5 mM Tris, 50 mM NaCl at pH 7.5. Samples were agitated on a shaker bath during equilibration which occurred after three to five days, as determined by control samples containing no DNA. After equilibration, volumes of liquid inside and outside the dialysis bags were determined (approximately 1 and 3 mls, respectively) and circular dichroism of the dialysate was meaxured on a Jasco J-40 spectropolarimeter. Final ruthenium concentration inside and outside the bags were measured by visible absorbance. Data anaylsis was performed on a VAX-780 using non-linear least squares analysis.
Equilibrium Dialysis: Equilibrium binding constants for the metal complexes with DNA may be determined classically by equilibrium dialysis. Calf thymus DNA was dialyzed against the series of mixed ligand complexes using a broad range of ruthenium concentrations. […] The results have been plotted according to Scatchard (88), where r is the ratio of bound metal to DNA-phosphate concentration, and cf is the concentration of free metal complex. The data were fit by non-linear least squares analysis to the McGhee and von Hippel equation (8945) governing random non-cooperative binding to a lattice,
where r is the ratio of bound concentration of ruthenium to the concentration of DNA-phosphate, cf is the concentration of ruthenium free in soltuion, Kb the intrinsic binding constant, and the integer /, which measures the degree of anti-cooperativeity, is the size of a binding site in base pairs. The curves shown reflect the best fit after variation of two parameters: the intrinsic binding constant, Kb, and binding stie size, /. For those complexes were cooperatively was observed, the equation (89) incorporating a cooperativity parameter was used.
Equilibrium dialysis experiments additionally offer the opportunity to examine any enantiomeric selectivities associated with binding. After dialysis of the DNA against the racemic mixture, optical activity observed in the dialysate refelects an enrichment in the dialysate in the less favored enantiomer. For most of the complexes, optical activity was found in the dialysate. Values for the extent of enantiomeric selectivity could not be quanitated in the absence of determinations of DE and assignments of absolute configuration. Assuming that the signs of the circular chroism in the ultraviolet ligand bands are the same for the these ligands as that for the parent phenanthroline complex, (90) we have assigned the absolute configuration of these complexes by comparison to spectra for enantiomers of Ru(phen)3^2+ and have compared levels of enantioselectivity qualitatively through measurements of circular dichroic intensity per rutheium bound. Based upon these assumptions, we find enantionmeric selectivities for the polyridyl complexes to reflect an enrichment in the isomer in the dialysate and the preferential binding of the isomer to the right-handed DNA. This observation is consistent with the preferential intercalation of isomers found earlier for Ru(phen)3^2+ in right-handed B-DNA. (63) We may also compare relative enantioselectivities for different ancillary ligands. […] The same comparison may be seen qualitatively between Ru(phen)2 DIP^2+ and Ru(bpy)2 DIP^2+.

B-form DNA = conditions: cited from earlier work
DNA = assay: Luminescence in presence of DNA (preliminary); format: binding; conditions: in words
From the text: Ru(phen)2 (dppz)^2+, and Ru(dip)2 (dppz)^2+ seem have similar behavior as described above. […] We are presently tethering this complexes, Ru(bpy)2 (dppz)^2+, Ru(dppz)2 phen^2+, and Ru(phen)2 (dppz)^2+ to oligonucleotides to develop non-radioactive luminescent DNA probes for both heterogeneous and homogeneous assay systems. The probes, constructed in this way should luminesce only upon finding its target sequence.

calf thymus DNA [2] = assay: Absorption titration with calf thymus DNA (half-reciprocal, hypochromism); format: binding; conditions: in words; for binding to DNA: absorption changes too small for Kb
From the text: In plots of [DNA]/(εA -εF) versus [DNA], Kb is given by the ratio of the slope to intercept.

pBR322 DNA = assay: Unwinding of supercoiled pBR322 DNA (topoisomerase I assay); conditions: for EC50: read-out: Unwinding concentration, needed to unwind 11 of 22 supercoils, [DNA] 47 μM for phi complexes, 31.5 μM others, 60 min
calf thymus DNA [3] = assay: Spectroscopic properties (absorption, emission, lifetime) on binding to calf thymus DNA; conditions: for Emission Enchantment (I/Io): 7 μM Ru, 40:1 nucleotide/metal, 20° C.
Description: Instrumentation: NMR spectra were recorded on a Varian VXR-300MHz spectormeter. FABS were performed using a VG Analytical 7070EQ Mas Spectrometer (78), and elemental analyses were done by Galbraith Laboratories in Nashville, Tenn. UV-Visible absorbance spectal were recorded on a Varian CARY-219 absorbance spectorphotometer. Extinction coefficients for the compounds were determined versus ruthenium concentrations obtained by atomic absorption spectroscopy with known ruthenium standards. [Ru(bpy)3 ]Cl2 solutions were also employed for these determinations as an internal standard. A varian AA-875 atomic absorption spectrophotometer was used for these determinations.
Emission spectra were measured on a Perkin-Elmer LS-5 fluorescence spectrometer. The samples were excited at their corresponding isosbestic points. All the measurements were made at 20° C. in a thermostatted cuvette holder with 3 nm entrance slit and 10 nm exit slit. Ruthenium solutions employed were 7 μM in concentration and claf thymus DNA was added to a ration of 40:1 nucleotide/metal; ruthenuim-DNA soltuions were allowed to incubate for 15 minutes before enhanced spectra were recorded. The emission enhancement factors were measured by comparing the intensitites at the emission spectral mixima in the absence ad presence of DNA, under similar conditions.
The limunescence lifetime measurements were done on a PRA SPC (single photon countining) spectometer with some minor modifications. The samples were excited with a nitrogen filled tnynratron gated flash lamp and the data were collected using a Tracor Northern 1710 multichannel analyser. The data were then transferred to a PDP-11/03 computer and deconvoluted with PRA software. […] concentrated solution of DNA (5mM DNA-phosphate) in buffer was added to a solution of the metal complex (4 μM) in buffer and allowed to equilibrate. Lifetimes of the samples were measured 0.5 hr after the metal complexes were mixed with DNA. All measurements were made at 20° C. and under air saturated conditions.
Furthermore, for all the complexes, this electronic transition is perturbed on binding to DNA.

Solubility in buffer = format: physicochemical; conditions: for Solubilities in Buffer: chloride salts, 5 mM Tris, 50 mM NaCl, pH 7.5, 24 hrs., 25° C., SD in parentheses; for solubility: in words
Description: Measurement of Solubilities: Solubilities of the compounds wre measured by preparing saturated solutions of metal complex in buffer (50mM NaCl, 5 mM Tris, pH 7.5) and allowng the suspensions to equilibrate for 24 hours at 25 C. After that time, the solutions were spun down in an Eppendorff microcentrifuge at 15,000 rev/min for 2 minutes and the supernatant was carefully removed by pipette. After dilution, the ruthenuim concentrattions were measured by UV-visible absorbance.

[4] = tested on: EcoRI site on end-labeled DNA fragment; conditions: cited from earlier work
[5] = tested on: distamycin binding sites on end-labeled DNA fragment; assay: Footprinting of distamycin; conditions: by Rh(phi)2 (bpy)^3+, 5'-end-labeled fragment
[6] = tested on: distamycin binding sites on end-labeled DNA fragment; conditions: cited crystallography; cited from earlier work

Compound: [Ru+2].c1ccc(-c2ccnc3c2ccc2c(-c4ccccc4)ccnc23)cc1.c1ccc(-c2ccnc3c2ccc2c(-c4ccccc4)ccnc23)cc1.c1ccc(-c2ccnc3c2ccc2c(-c4ccccc4)ccnc23)cc1 [Ru(DIP)3^2+, reference compound]
- aggregation in solution (calf thymus DNA [1]): extensive aggregation
- binding affinity for DNA (calf thymus DNA [1]): appear to bind DNA more avidly
- enantiomer selectively bound by B-form DNA (B-form DNA): Δ-enantiomers

Compound: [Ru+2].c1ccc(-c2ccnc3c2ccc2c(-c4ccccc4)ccnc23)cc1.c1ccc(-c2ccnc3c2ccc2c(-c4ccccc4)ccnc23)cc1.c1ccc2nc3c4cccnc4c4ncccc4c3nc2c1 [Ru(dip)2 (dppz)^2+]
- luminescence dependence on DNA (DNA): luminesce only in the presence of DNA but not in the presence of H2 O (or Buffer) alone

Compound: [Ru+2].c1ccc(-c2ccnc3c2ccc2c(-c4ccccc4)ccnc23)cc1.c1cnc2c(c1)ccc1cccnc12.c1cnc2c(c1)ccc1cccnc12 [Ru(phen)2 (DIP)^2+]
- hypochromism / absorption change on DNA addition (calf thymus DNA [2]): greatest change in absorption
- EC50 (pBR322 DNA): 9 µM
- Site size (calf thymus DNA [1]): cooperative
- aggregation in solution (calf thymus DNA [1]): tend to agfregate in solution
- binding curve type (cooperativity) (calf thymus DNA [1]): cooperatiove binding
- Emission Enchantment (I/Io) (calf thymus DNA [3]): 2.06 I/Io
- Solubilities in Buffer (Solubility in buffer): 9. (1.2) mM
- solubility (Solubility in buffer): only sparingly soluble in the buffer solution

Compound: EcoRI: restriction endonuclease EcoRI
- crystal binding site size ([4]; cited crystallography): ten
- DNA contact length of EcoRI ([4]; x-ray co-crystal): 10 base pairs

Compound: Cn1cc(NC(=O)c2cc(NC(=O)c3cc(NC=O)cn3C)cn2C)cc1C(=O)NCCC(=N)N [distamycin]
- distamycin binding sites footprinted [5]: strong A6 binding site (41-47 bp); also recorded: AATT (67-70, 119-12), TAAT (73-76), AAATT (101-105), and TTAT (107-110)
- binding site size by crystal structure [6]: six

Compound: [Ru+2].c1ccc2nc3c4cccnc4c4ncccc4c3nc2c1.c1cnc2c(c1)ccc1cccnc12.c1cnc2c(c1)ccc1cccnc12 [Ru(phen)2 (dppz)^2+]
- luminescence dependence on DNA (DNA): luminesce only in the presence of DNA but not in the presence of H2 O (or Buffer) alone

Compound: [Ru].c1cnc2c(c1)ccc1cccnc12.c1cnc2c(c1)ccc1cccnc12.c1cnc2c(c1)ccc1cccnc12 [Ru(phen)3^2+, reference compound]
- Unwinding Angle (pBR322 DNA): 19 °
- Unwinding Angle (pBR322 DNA; per molecule of bound complex): 19 degrees
- EC50 (pBR322 DNA): 9 µM
- Site size (calf thymus DNA [1]): 4 base pairs
- Emission Enchantment (I/Io) (calf thymus DNA [3]): 1.87 I/Io
- Solubilities in Buffer (Solubility in buffer): 159. (5.3) mM
- enantiomer selectively bound by B-form DNA (B-form DNA): Δ-enantiomers

Compound: N=C1C(=N)c2ccccc2-c2ccccc21.[Ru+2].c1cnc2c(c1)ccc1cccnc12.c1cnc2c(c1)ccc1cccnc12 [Ru(phen)2 (phi)^2+]
- hypochromism / absorption change on DNA addition (calf thymus DNA [2]): hypochromism and a large red shift
- Unwinding Angle (pBR322 DNA): 26 °
- Unwinding Angle (pBR322 DNA; per molecule of bound complex): 26 degrees
- EC50 (pBR322 DNA): 1.2 µM
- Site size (calf thymus DNA [1]): 2-3 base pairs
- intensity in circular dichroism per ruthenium bound (calf thymus DNA [1]; relative to Ru(bpy)2 phi^2+): more than three times greater
- Solubilities in Buffer (Solubility in buffer): 0.17 (.01) mM

Compound: O=C1c2cccnc2-c2ncccc21.[Ru+2].c1cnc2c(c1)ccc1cccnc12.c1cnc2c(c1)ccc1cccnc12 [Ru(phen)2 (flone)^2+, [Ru(phen)2 (4,5-diazafuorene-9-one)]Cl2]
- binding to DNA (calf thymus DNA [2]): bound very weakly
- Enantioselectivity (calf thymus DNA [1]): no enantiomeric discrimination is apparent
- Enantioselectivity (calf thymus DNA [1]; listed as Ru(phen) (flone)Cl): none
- Site size (calf thymus DNA [1]): 9-12 base pairs
- binding affinity for DNA (calf thymus DNA [1]): indistinguishable from that for Ru(phen)2 bpy^2+
- binding affinity for DNA (calf thymus DNA [1]; listed as Ru(phen)^2+2. flone): much lower than would be expected based upon their solvent accessible surfaces
- Solubilities in Buffer (Solubility in buffer): 60. (2.2) mM

Compound: [Ru+2].c1ccc(-c2ccnc3c2ccc2c(-c4ccccc4)ccnc23)cc1.c1ccc(-c2ccnc3c2ccc2c(-c4ccccc4)ccnc23)cc1.c1cnc2c(c1)ccc1cccnc12 [Ru(DIP)2 (phen)^2+]
- hypochromism / absorption change on DNA addition (calf thymus DNA [2]): greatest change in absorption
- Site size (calf thymus DNA [1]): cooperative
- aggregation in solution (calf thymus DNA [1]): tend to agfregate in solution
- binding curve type (cooperativity) (calf thymus DNA [1]): cooperatiove binding
- binding affinity for DNA (calf thymus DNA [1]): binding similar to that of Ru(phen2 DIP^2+
- Emission Enchantment (I/Io) (calf thymus DNA [3]): 2.14 I/Io
- Solubilities in Buffer (Solubility in buffer): 0.18 (.01) mM
- solubility (Solubility in buffer; listed as Ru(DIP)2 (phen)2): only sparingly soluble in the buffer solution
- solubility (Solubility in buffer; listed as Ru(DIP)2)phen)^2+): too insoluble

Compound: [Ru+2].c1ccc(-c2ccccn2)nc1.c1ccc(-c2ccccn2)nc1.c1ccc(-c2ccccn2)nc1 [Ru(bpy)3^2+, reference compound]
- hypochromism / absorption change on DNA addition (calf thymus DNA [2]): litle hypochromic effect
- binding to DNA (calf thymus DNA [2]): bound very weakly
- unwinding of the helix (pBR322 DNA; in words): shows little significant unwinding of the helix
- EC50 (pBR322 DNA): 650 µM
- Km × 10) equilibrium dialysis (intrinsic binding constant Kb) (calf thymus DNA [1]): 0.7(.13) × 10
- Site size (calf thymus DNA [1]): 6-12 base pairs
- Emission Enchantment (I/Io) (calf thymus DNA [3]): 1.06 I/Io
- intercalation (calf thymus DNA [3]; in words): neither intercalates nor surface-binds to the helix

Compound: [Ru+2].c1ccc(-c2ccccn2)nc1.c1ccc(-c2ccccn2)nc1.c1cnc2c(c1)ccc1cccnc12 [Ru(bpy)2 (phen)^2+]
- hypochromism / absorption change on DNA addition (calf thymus DNA [2]): litle hypochromic effect
- binding to DNA (calf thymus DNA [2]): bound very weakly
- EC50 (pBR322 DNA): 69 µM
- Km × 10) equilibrium dialysis (intrinsic binding constant Kb) (calf thymus DNA [1]): 0.7(.07) × 10
- Site size (calf thymus DNA [1]): 10-14 base pairs
- Emission Enchantment (I/Io) (calf thymus DNA [3]): 1.12 I/Io
